From patent US20240158430A1, “NOVEL COMPOUND OR SALT THEREOF, AND ANTITUMOR ACTIVATOR CONTAINING SAME AS ACTIVE INGREDIENT” (AKITA UNIVERSITY, priority 2021, published 2024)

Columns and labels:
[1] = tested on: gastric cancer cell line GCIY; test: Cell growth inhibitory activity, GCIY; format: cell-based
Method: [The source words this procedure for another cell line and reports this cell line under the same test.] (§1) The cell growth inhibitory activity against a colorectal cancer cell line HCT116 was measured. As an index of cell growth inhibitory activity, a concentration at which cell growth was inhibited by 50% as compared with a control (IC50) was used. The method is as follows. HCT116 was added to a 6-well plate by 5×10^4, compounds having various concentrations were added after 24 hours, and the number of cells was counted after 72 hours of culture. As the control, DMSO was used in an amount equal to the amount added in accordance with the addition concentration of the highest-concentration compound. The number of cells at each concentration relative to the control was expressed as a percentage.
(§2) The method is as described above.

HCT116 = test: In vivo antitumor effect, HCT116 subcutaneous implant; details: nude mouse, HCT116 s.c.; 1 mg single tail vein injection; maximum diameter 4 days after; control 113.7±12.4%
Method: The in vivo antitumor effect of GO-Y199 was investigated. The method is as follows. HCT116 was implanted subcutaneously into a nude mouse. After tumor formation, 100 mM GO-Y199 in DMSO was dissolved in 100 μL of PBS and injected once into the tail vein of the mouse (corresponding to 1 mg of GO-Y199). As a control group, a DMSO-PBS solution having the equivalent concentration was injected once into the tail vein. The maximum diameter of the tumor was measured 4 days after the administration.

Caspase 3 = test: Influence on Caspase 3, immunohistochemistry; format: cell-based; details: 2 μM; 24 hours; control 1.0±0.1%
Method: (§3) The influence of GO-Y199 on NF-kB (p65) was investigated. The method is as follows. 3×10^6 cells of the HCT116 cell line were added to a 10-cm plate, 2 μM of GO-Y199 was added after 24 hours, the cells were collected after 24 hours, embedded in iPGell (GenOStaff), and fixed in formalin, paraffin blocks were then prepared, and immuno-histochemistry was performed with an anti-NF-kB (p65) antibody. In addition, 2 μM and 5 μM of GO-Y199 were added, lysates were collected after 24 hours, and an expression level of NF-kB (p65) was analyzed using an ELISA-plate (NF-kBp65 (pS536) SimpleStep-ELISA-kit, Abcam). An amount of protein was corrected by the absorbance of A 280 nm. The upper part of FIG. 14 indicates photographs of the control group and the GO-Y199 (2 μM)-added group after 24 hours. The lower part of FIG. 14 indicates results of the t-test of these groups after 24 hours. FIG. 15 indicates the comparison results of the NF-kB inhibitory effect of GO-Y199 (2 μM, 5 μM)-added groups with respect to the control group.
(§4) The influence of GO-Y199 on Caspase 3 was investigated. The method is as described above. Immunohistochemistry was performed with an anti-Caspase 3 antibody. Quantification of apoptosis-related protein was performed using M30 Apotosense ELISA (PEVIVA). The upper part of FIG. 20 indicates photographs of the control group and the GO-Y199 (2 μM)-added group after 24 hours. […]

MSTO-211H cells = test: Antitumor effect on malignant mesothelioma cells, animal model; format: in vivo, nude mice
Method: An animal model was used to investigate the antitumor effect of GO-Y199 on malignant mesothelioma cells. The method is as follows. 2.8×10^6 MSTO-211H cells were intraperitoneally transplanted into each of 5 nude mice. From Day 5, 43 μL of 100 mM GO-Y199 in DMSO was diluted to 500 μL with PBS and intraperitoneally administered to the mice (equivalent to 5 mg of GO-Y199). As a control group, a DMSO-PBS solution having the equivalent concentration was intraperitoneally administered to each of four nude mice to which MSTO-211H cells were intraperitoneally transplanted in the same manner. The administration was performed 5 times in total at intervals of 5 days. After 30 days, the mice were sacrificed, necropsied, and analyzed.

β-catenin = test: Influence on β-catenin, ELISA; format: cell-based; details: control 11.5±2.3
Method: as §3
The influence of GO-Y199 on β-catenin was investigated. The method is as described above. Immunohistochemistry was performed with an anti-β-catenin antibody. Protein quantification was performed using an ELISA plate (proteintech). FIG. 17 indicates photographs of the control group and the GO-Y199 (2 μM)-added group after 24 hours. […]

[2] = tested on: apoptosis-related protein; test: Apoptosis-related protein, M30 Apotosense ELISA; format: cell-based; details: control 360 U/L
Method: as §3, §4

[3] = tested on: breast cancer cell line HCC38; test: Cell growth inhibitory activity, HCC38; format: cell-based
Method: [The source words this procedure for another cell line and reports this cell line under the same test.] as §1, §2

Kato III = test: Cytocidal effect, Kato III; format: cell-based; details: 2 μM and 5 μM, cells counted after 48 and 72 hours
Method: The method is as follows. Each cell line was added to 6-well plate by 5×10^4, 2 μM and 5 μM of GO-Y199 were added after 24 hours, and the number of cells was counted after 48 hours and 72 hours.

[4] = tested on: FOXP3-positive regulatory T cells; test: Regulatory T cell inhibitory activity; format: cell-based, mouse; details: 0.3 μM; control 12.8%
Method: Naive CD4^+ T cells were collected from the spleen of a mouse using a CD4^+CD62L^hi T Cell Isolation Kit (Miltenyi Biotec). 0.5×10^6 cells/mL of the collected T cells were added to a RPMI 1640 medium to which penicillin/streptomycin (5,000 units/mL), 10% fetal bovine serum, and 50 μM of 2-mercaptoethanol were added. Subsequently, 1 μg/mL of anti-CD3 antibody (eBioscience) was added to the medium, and 1 μg/ml of anti-CD28 antibody (eBioscience) was further added thereto. The medium was then cultured at 37° C. for 3 days. Then, TGF-β1 (2 ng/mL) was added to the medium and cultured for 24 hours. After that, a FOXP3 Staining Buffer Kit (eBioscience) was used to fix the cells and treat cell membranes, and FOXP3 in the nuclei was stained. The stained cells were measured using a BD LSRFortessa™ (BD Bioscience) flow cytometer, and the obtained data was analyzed with FlowJo (Tree-Star version).

With `COCOc1cc(/C=C/C(=O)CC(SCCOCCOCCOCCOCc2cn([C@@H]3O[C@H](CO)[C@@H](O[C@@H]4O[C@H](CO)[C@H](O)[C@H](O)[C@H]4O)[C@H](O)[C@H]3O)nn2)c2cc(OCOC)cc(OCOC)c2)cc(OCOC)c1` (stereo partly drawn) [GO-Y199] the IC50 ([1]; Table 4, 72 hours) was 160 nM, the “GO-Y199 vs GO-Y030 (IC50 comparison), GCIY” value ([1]; Table 5, ratio of IC50) was 1.24 and the “GO-Y199 vs curcumin (IC50 comparison), GCIY” value ([1]; Table 5, ratio of IC50) was 0.03. The “tumor augmentation, % of that before the administration” value (HCT116) was 95.2±20.0%, the “proportion of Caspase 3-expressing cells” value (Caspase 3) was 57.4±2.6% and the “animals with microscopic peritoneal disseminated lesions” value (MSTO-211H cells; 5 mg i.p., 5 times at intervals of 5 days, after 30 days, control 75%) was 80%. The “size (maximum diameter) of disseminated nodule” value (MSTO-211H cells; 5 mg i.p., 5 times, after 30 days, control 6 to 13 mm) was 5 mm, the “animals with disseminated nodule of maximum diameter exceeding 5 mm” value (MSTO-211H cells; 5 mg i.p., 5 times, after 30 days, control 100%) was 20% and the “pathologic analysis, inside of the disseminated nodule” value (MSTO-211H cells; control filled with tumor cells) was “necrotic”. The “tumor formation at the puncture site” value (MSTO-211H cells; not observed in control group) was “one animal”, the “relative expression level of β-catenin” value (β-catenin; 2 μM) was 2.8±0.8 and the “relative expression level of β-catenin” value (β-catenin; 5 μM) was 3.9±1.1. For the same compound, the “apoptosis-related protein activity (M30)” value ([2]; 2 μM) was 1,830 U/L, the “apoptosis-related protein activity (M30)” value ([2]; 5 μM) was 2,050 U/L and the IC50 ([3]; Table 4, 72 hours) was 1050 nM. For the same compound, the “GO-Y199 vs GO-Y030 (IC50 comparison), HCC38” value ([3]; Table 5, ratio of IC50) was 0.58, the cytocidal effect (Kato III) was “cytocidal effect” and the “induction ratio of FOXP3-positive regulatory T cells” value [4] was 2.22%.
